These results are taken from ChEMBL document CHEMBL1133460, “Synthesis and biological evaluation of certain alpha,beta-unsaturated ketones and their corresponding fused pyridines as antiviral and cytotoxic agents” (J Med Chem, 2000).

≈ marks a conversion by molar mass, not a printed value.

The first assay relates to Human alphaherpesvirus 1. As to the kind of experiment: Minimum antiviral concentration proved to be lethal to viral population in uM. It counts as functional.
Conditions: not given; call rule not given here
As to `C[C@@]1(CO)[C@H](O)CC[C@@]2(C)[C@H]1CC[C@H]1C[C@@H]3C[C@@]12CC[C@]3(O)CO` [APHIDICOLIN], the MAC was found to be 0.02 µM.

As for `CN1C/C(=C\c2ccc(Cl)cc2)C(=O)/C(=C/c2ccc(Cl)cc2)C1`, the MAC stood at 0.07 µM.

As to `Cc1ccc(/C=C2\CN(C)C/C(=C\c3ccc(C)cc3)C2O)cc1`, the MAC is 0.06 µM.

For the compound `COc1ccc(/C=C2\CN(C)C/C(=C\c3ccc(OC)cc3)C2O)cc1`, the MAC came out at 0.06 µM.

In the next assay the test system is Human alphaherpesvirus 1. As to the kind of experiment: Minimum antiviral concentration proved to be lethal to viral population in ug/mL. It counts as functional.
Conditions: not given
`C[C@@]1(CO)[C@H](O)CC[C@@]2(C)[C@H]1CC[C@H]1C[C@@H]3C[C@@]12CC[C@]3(O)CO` [APHIDICOLIN] returned an MAC of 0.005 µg/mL.

Regarding `CN1C/C(=C\c2ccc(Cl)cc2)C(=O)/C(=C/c2ccc(Cl)cc2)C1`, the MAC came out at 0.02 µg/mL.

As to `Cc1ccc(/C=C2\CN(C)C/C(=C\c3ccc(C)cc3)C2O)cc1`, the MAC worked out at 0.02 µg/mL.

Consider `COc1ccc(/C=C2\CN(C)C/C(=C\c3ccc(OC)cc3)C2O)cc1`, for which the MAC turned out to be 0.02 µg/mL.

System in a further assay: not listed separately
Briefly: In vitro median growth inhibitory concentration against colon cancer cell lines. It counts as functional. Particulars: Homo sapiens.
Consider `Cc1ccc(/C=C2\CN(C)CC3C2=NN(c2ccccc2)C3c2ccc(C)cc2)cc1` (centres undefined), for which the GI50 was over 100 µM.

In the next assay the test system is Human alphaherpesvirus 1. Briefly: Concentration which caused 50% loss of the monolayer present around the viral plaques in ug/mL. The assay is classed as functional, organism-based.
Conditions: not given
`C[C@@]1(CO)[C@H](O)CC[C@@]2(C)[C@H]1CC[C@H]1C[C@@H]3C[C@@]12CC[C@]3(O)CO` [APHIDICOLIN]: the IC50 was 0.2 µg/mL (≈ 0.591 µM).

Regarding `CN1C/C(=C\c2ccc(Cl)cc2)C(=O)/C(=C/c2ccc(Cl)cc2)C1`, 0.2 µg/mL (≈ 0.558 µM) corresponded to half-maximal inhibition (IC50).

`Cc1ccc(/C=C2\CN(C)C/C(=C\c3ccc(C)cc3)C2O)cc1` came in with an IC50 of 0.2 µg/mL (≈ 0.626 µM).

Take `COc1ccc(/C=C2\CN(C)C/C(=C\c3ccc(OC)cc3)C2O)cc1`: the IC50 came to 0.04 µg/mL (≈ 0.114 µM).

System in another assay: not listed separately
Briefly: In vitro effective concentration against HIV-1 cytopathic effect in T4 cells. It counts as functional, cell-based. Particulars: Homo sapiens.
Take `Cc1cn([C@H]2C[C@H](N=[N+]=[N-])[C@@H](CO)O2)c(=O)[nH]c1=O` [ZIDOVUDINE]: the EC50 worked out at 0.0007 µM.

A further assay has as its system Human immunodeficiency virus 1. Briefly: In vitro effective concentration against HIV-1 cytopathic effect in T4 cells; Inactive. It counts as functional, organism-based.
Conditions: not given
With `CN1C/C(=C\c2cccs2)c2nc(O)c(C#N)c(-c3cccs3)c2C1`, the EC50 result is “Not Active”.

`Cc1ccc(/C=C2\CN(C)CC3C2=NN(c2ccccc2)C3c2ccc(C)cc2)cc1` (centres undefined): the EC50 entry was “Not Active”.

For `Cc1ccc(/C=C2\CN(C)Cc3c2nc(O)c(C#N)c3-c2ccc(C)cc2)cc1`, the EC50 result is recorded as “Not Active”.

For another assay, the system named is Breast cancer cell line. As to the kind of experiment: In vitro median growth inhibitory concentration against breast cancer cell lines. As to conditions: Homo sapiens. It counts as functional.
Take `Cc1ccc(/C=C2\CN(C)CC3C2=NN(c2ccccc2)C3c2ccc(C)cc2)cc1` (centres undefined): the GI50 is over 100 µM.

The next assay has as its system Human alphaherpesvirus 1. Briefly: In vitro antiviral activity against Herpes Simplex-1 virus (HSV-1) expressed as percent reduction in the number of viral plaques. It counts as functional. Set-up: concentration or dose not given beside the values.
Conditions: not given
Regarding `C[C@@]1(CO)[C@H](O)CC[C@@]2(C)[C@H]1CC[C@H]1C[C@@H]3C[C@@]12CC[C@]3(O)CO` [APHIDICOLIN], the Reduction is given as 100%.

Turning to `CN1C/C(=C\c2ccc(Cl)cc2)C(=O)/C(=C/c2ccc(Cl)cc2)C1`, the Reduction is given as 93%.

As to `Cc1ccc(/C=C2\CN(C)C/C(=C\c3ccc(C)cc3)C2O)cc1`, the Reduction is given as 82%.

As to `COc1ccc(/C=C2\CN(C)C/C(=C\c3ccc(OC)cc3)C2O)cc1`, the Reduction is listed as 58%.

A further assay concerns Panel CNS (Carcinoma cell lines). As to the kind of experiment: In vitro median growth inhibitory concentration against CNS cancer cell lines. It counts as functional. As to conditions: Homo sapiens.
Turning to `Cc1ccc(/C=C2\CN(C)CC3C2=NN(c2ccccc2)C3c2ccc(C)cc2)cc1` (centres undefined), the GI50 is 77 µM.

The species entered for the next assay is Homo sapiens. As to the kind of experiment: Selectivity ratio between the full panel MG-MID and leukemia subpanel MG-MID was determined. The assay is classed as functional.
Conditions: not given
Take `Cc1ccc(/C=C2\CN(C)CC3C2=NN(c2ccccc2)C3c2ccc(C)cc2)cc1` (centres undefined): the Ratio was 2.2.

For a further assay, the system named is Panel renal (Carcinoma cell lines). Briefly: In vitro median growth inhibitory concentration against renal cancer cell lines. The assay is classed as functional. Particulars: Homo sapiens.
For `Cc1ccc(/C=C2\CN(C)CC3C2=NN(c2ccccc2)C3c2ccc(C)cc2)cc1` (centres undefined), the GI50 turned out to be 83.7 µM.

Another assay deals with Panel melanoma (Carcinoma cell lines). Briefly: In vitro median growth inhibitory concentration against melanoma cell lines. Particulars: Homo sapiens. The assay is classed as functional.
`Cc1ccc(/C=C2\CN(C)CC3C2=NN(c2ccccc2)C3c2ccc(C)cc2)cc1` (centres undefined): growth was halved (GI50) at 77.9 µM.

The subject of another assay is Ovarian cancer cell line. Briefly: In vitro median growth inhibitory concentration against ovarian cancer cell lines. As to conditions: Homo sapiens. The assay is classed as functional.
`Cc1ccc(/C=C2\CN(C)CC3C2=NN(c2ccccc2)C3c2ccc(C)cc2)cc1` (centres undefined): the GI50 is 92.8 µM.

System in the next assay: not listed separately
As to the kind of experiment: Full panel mean-graph midpoint (MG-MID).
Conditions: not given
Turning to `Cc1ccc(/C=C2\CN(C)CC3C2=NN(c2ccccc2)C3c2ccc(C)cc2)cc1` (centres undefined), the MG-MID came to 81 µM.

The test system of a further assay is Panel prostate (Carcinoma cell lines). Briefly: In vitro median growth inhibitory concentration against prostate cancer cell lines. The assay is classed as functional. As to conditions: Homo sapiens.
With `Cc1ccc(/C=C2\CN(C)CC3C2=NN(c2ccccc2)C3c2ccc(C)cc2)cc1` (centres undefined), the GI50 was 69.5 µM.

In a further assay the test system is MT4. As to the kind of experiment: In vitro inhibitory activity against uninfected T4 cells. The assay is classed as functional, cell-based. As to conditions: Homo sapiens.
Compound `CN1C/C(=C\c2cccs2)c2nc(O)c(C#N)c(-c3cccs3)c2C1` yielded an IC50 of over 200 µM.

Compound `Cc1ccc(/C=C2\CN(C)CC3C2=NN(c2ccccc2)C3c2ccc(C)cc2)cc1` (centres undefined) returned an IC50 of over 200 µM.

`Cc1ccc(/C=C2\CN(C)Cc3c2nc(O)c(C#N)c3-c2ccc(C)cc2)cc1` came in with a concentration for half-maximal inhibition (IC50) of over 200 µM.

`Cc1cn([C@H]2C[C@H](N=[N+]=[N-])[C@@H](CO)O2)c(=O)[nH]c1=O` [ZIDOVUDINE] returned an IC50 of 35.6 µM.

A further assay has as its system NSCLC. As to the kind of experiment: In vitro median growth inhibitory concentration against non-small-cell lung cancer. The assay is classed as functional. As to conditions: Homo sapiens.
As for `Cc1ccc(/C=C2\CN(C)CC3C2=NN(c2ccccc2)C3c2ccc(C)cc2)cc1` (centres undefined), growth was halved (GI50) at 97.4 µM.

In the next assay the test system is Human alphaherpesvirus 1. Briefly: Concentration which caused 50% loss of the monolayer present around the viral plaques in uM.
Conditions: not given
It counts as functional, organism-based.
In turn, `C[C@@]1(CO)[C@H](O)CC[C@@]2(C)[C@H]1CC[C@H]1C[C@@H]3C[C@@]12CC[C@]3(O)CO` [APHIDICOLIN] came in with an IC50 of 0.59 µM.

For the compound `CN1C/C(=C\c2ccc(Cl)cc2)C(=O)/C(=C/c2ccc(Cl)cc2)C1`, the IC50 was 0.69 µM.

Turning to `Cc1ccc(/C=C2\CN(C)C/C(=C\c3ccc(C)cc3)C2O)cc1`, the IC50 amounted to 0.63 µM.

Regarding `COc1ccc(/C=C2\CN(C)C/C(=C\c3ccc(OC)cc3)C2O)cc1`, the IC50 came out at 0.12 µM.

The next assay concerns Panel leukemia (Carcinoma cell lines). As to the kind of experiment: In vitro median growth inhibitory conc. against leukemia was estimated. The assay is classed as functional. As to conditions: Homo sapiens.
In the case of `Cc1ccc(/C=C2\CN(C)CC3C2=NN(c2ccccc2)C3c2ccc(C)cc2)cc1` (centres undefined), the GI50 is 37.4 µM.

By GI50 is commonly meant the concentration giving 50% growth inhibition. For orientation: IC50 means the point on the concentration scale where inhibition reaches its midpoint. The EC50 is the concentration needed to bring the measured effect to its halfway point.
